{"source": "paper PMC6770091", "about": "“P-Glycoprotein 1 Affects Chemoactivities of Resveratrol against Human Colorectal Cancer Cells” (Nutrients, 2019)", "key": {"[1]": {"test_system": "SW480 cells", "test": "[3H]-resveratrol efflux measurement", "type": "in vitro ADME, human", "details": "for Vi = % of Resveratrol Efflux . min^−1: after 10 min uptake of 30 µM [3H]-resveratrol", "description": "(§1) Resveratrol efflux was examined by incubating confluent cells in 6-well plates over 10 min with 30 µM tritiated resveratrol in complete medium at 37 °C. […] At the end of the incubation period, the labeled medium was removed and the cells were washed two times with PBS. Fresh medium (37 °C or 4 °C) was then quickly added to allow the cells to efflux tritiated resveratrol from 1 to 360 min. At the end of each time point, the cells were washed and lysed in NaOH 0.1 M, Na2CO3 2%, SDS 0.1%. The cell homogenates were transferred into flasks and cell-associated radioactivity was counted in a liquid scintillation analyzer."}, "[2]": {"test_system": "colon carcinoma cells (all cell lines)", "test": "[3H]-resveratrol efflux in presence of other ABC protein inhibitors", "type": "cell-based, human"}, "[3]": {"test_system": "SW620 cells", "test": "[3H]-resveratrol efflux measurement", "type": "in vitro ADME, human", "details": "after 10 min uptake of 30 µM [3H]-resveratrol", "description": "as §1, with “analyzer. We evaluated 60 min area under curves (AUC) by integrating exponential regression curves of [^3H]-resveratrol time course accumulation between 0 and 60 min.” for “analyzer.”"}, "[4]": {"test_system": "HCT116 cells", "test": "[3H]-resveratrol efflux measurement", "type": "in vitro ADME, human", "details": "after 10 min uptake of 30 µM [3H]-resveratrol", "description": "as §1, with “analyzer. We evaluated 60 min area under curves (AUC) by integrating exponential regression curves of [^3H]-resveratrol time course accumulation between 0 and 60 min.” for “analyzer.”"}, "[5]": {"test_system": "HT29 cells", "test": "[3H]-resveratrol efflux measurement", "type": "in vitro ADME, human", "details": "after 10 min uptake of 30 µM [3H]-resveratrol", "description": "as §1, with “analyzer. We evaluated 60 min area under curves (AUC) by integrating exponential regression curves of [^3H]-resveratrol time course accumulation between 0 and 60 min.” for “analyzer.”"}, "[6]": {"test_system": "SW620 cells", "test": "Cytotoxicity assay, crystal violet staining", "type": "cell-based", "details": "Homo sapiens, SW-620, SW620, 72 h, read-out: IC50 (concentration inhibiting 50% of the tumor proliferation)", "description": "(§2) Cell lines were seeded into 96-well plates. After 24 h of culture, the cells were treated with increasing concentrations of resveratrol for 72 h. All control and treated cells received the same volume of ethanol (0.1%). After time of treatment, cells were harvested and the toxicities were evaluated by crystal violet staining. Briefly, after treatments cells were washed with PBS 1X, stained for 5 min with a crystal violet solution (0.5% (w/v) crystal violet in 25% (v/v) methanol), and then gently rinsed with water. Absorbances were read at 540 nm with a Biochrom Asys UVM 340 spectrophotometer, after the extraction of the dye by 0.1 M sodium citrate in 50% ethanol. The inhibitory concentrations 50% (IC50) were assessed by crystal violet staining after 72 h of treatment. IC50 values were calculated by a four-parameter non-linear regression with GraphPad Prismversion 6 software (San Diego, California, CA, USA). In some experiments, after 24 h of seeding, cells were treated with resveratrol (30 µM) for 48 h before crystal violet staining. All results were expressed as percentages of control values (vehicle alone)."}, "[7]": {"test_system": "SW480 cells", "test": "Cytotoxicity assay, crystal violet staining", "type": "cell-based", "details": "Homo sapiens, SW480, 72 h, read-out: IC50 (concentration inhibiting 50% of the tumor proliferation)", "description": "as §2"}, "[8]": {"test_system": "HCT116 cells", "test": "Cytotoxicity assay, crystal violet staining", "type": "cell-based", "details": "Homo sapiens, HCT-116, HCT116, 72 h, read-out: IC50 (concentration inhibiting 50% of the tumor proliferation)", "description": "as §2"}, "[9]": {"test_system": "HT29 cells", "test": "Cytotoxicity assay, crystal violet staining", "type": "cell-based", "details": "Homo sapiens, HT-29, HT29, 72 h, read-out: IC50 (concentration inhibiting 50% of the tumor proliferation)", "description": "as §2"}, "[10]": {"test_system": "MRP2", "details": "human, 30 µM", "description": "as §1, with “analyzer. We evaluated 60 min area under curves (AUC) by integrating exponential regression curves of [^3H]-resveratrol time course accumulation between 0 and 60 min.” for “analyzer.”"}, "[11]": {"test_system": "BCRP", "details": "human, not told, 30 µM", "description": "as §1, with “analyzer. We evaluated 60 min area under curves (AUC) by integrating exponential regression curves of [^3H]-resveratrol time course accumulation between 0 and 60 min.” for “analyzer.”"}, "[12]": {"test_system": "MDR1", "details": "mouse, not told, 30 µM", "description": "as §1, with “analyzer. We evaluated 60 min area under curves (AUC) by integrating exponential regression curves of [^3H]-resveratrol time course accumulation between 0 and 60 min.” for “analyzer.”"}, "[13]": {"molecular_target": "T1, MRP1 (Homo sapiens, UniProt P33527)", "T1 construct": "expressed in transfected cells; host or cells: BHK 21 (baby hamster kidney) stably transfected clone BHK21-MRP1, provided by Dr. Attilio Di Pietro", "T1 sequence (P33527 whole entry)": "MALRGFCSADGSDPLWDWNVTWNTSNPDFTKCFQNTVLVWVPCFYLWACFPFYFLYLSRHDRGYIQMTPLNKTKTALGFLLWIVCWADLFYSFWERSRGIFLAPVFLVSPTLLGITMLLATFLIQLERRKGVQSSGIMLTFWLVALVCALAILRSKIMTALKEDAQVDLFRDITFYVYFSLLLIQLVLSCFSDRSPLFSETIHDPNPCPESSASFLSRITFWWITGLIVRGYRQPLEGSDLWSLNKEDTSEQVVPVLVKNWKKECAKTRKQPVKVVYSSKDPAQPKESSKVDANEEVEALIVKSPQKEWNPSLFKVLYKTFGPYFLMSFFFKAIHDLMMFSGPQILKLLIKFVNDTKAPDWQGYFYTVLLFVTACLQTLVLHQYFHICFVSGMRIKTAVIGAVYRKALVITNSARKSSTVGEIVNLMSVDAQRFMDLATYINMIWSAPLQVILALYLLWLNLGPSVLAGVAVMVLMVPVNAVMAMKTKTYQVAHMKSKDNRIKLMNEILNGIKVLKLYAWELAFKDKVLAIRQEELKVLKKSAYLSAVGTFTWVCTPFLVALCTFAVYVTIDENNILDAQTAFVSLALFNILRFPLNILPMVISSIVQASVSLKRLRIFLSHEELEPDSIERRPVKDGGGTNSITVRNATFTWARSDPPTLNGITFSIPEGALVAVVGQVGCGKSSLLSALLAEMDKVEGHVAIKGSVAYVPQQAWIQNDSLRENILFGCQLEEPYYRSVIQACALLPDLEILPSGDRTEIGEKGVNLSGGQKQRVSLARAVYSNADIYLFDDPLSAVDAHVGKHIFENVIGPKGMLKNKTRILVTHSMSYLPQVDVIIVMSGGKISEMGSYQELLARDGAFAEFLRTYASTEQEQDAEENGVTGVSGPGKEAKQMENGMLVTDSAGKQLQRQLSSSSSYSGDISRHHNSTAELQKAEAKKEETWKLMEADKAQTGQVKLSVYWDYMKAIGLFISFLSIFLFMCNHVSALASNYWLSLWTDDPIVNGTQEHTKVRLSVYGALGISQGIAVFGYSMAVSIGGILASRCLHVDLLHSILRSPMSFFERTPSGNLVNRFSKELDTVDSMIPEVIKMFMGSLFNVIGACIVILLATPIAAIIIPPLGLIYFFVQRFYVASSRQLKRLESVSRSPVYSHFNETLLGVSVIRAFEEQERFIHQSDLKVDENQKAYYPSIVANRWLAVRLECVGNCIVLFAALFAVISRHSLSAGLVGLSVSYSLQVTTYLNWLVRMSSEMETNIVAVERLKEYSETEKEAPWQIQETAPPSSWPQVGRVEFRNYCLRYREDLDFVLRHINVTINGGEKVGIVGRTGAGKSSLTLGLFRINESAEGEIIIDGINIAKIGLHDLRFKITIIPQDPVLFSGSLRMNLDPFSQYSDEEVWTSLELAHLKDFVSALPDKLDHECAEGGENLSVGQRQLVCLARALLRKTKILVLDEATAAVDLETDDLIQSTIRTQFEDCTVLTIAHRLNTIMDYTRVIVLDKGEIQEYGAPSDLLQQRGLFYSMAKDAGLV", "test": "[3H]-resveratrol efflux, BHK 21 vs BHK21-MRP1 overexpressing clone", "type": "in vitro ADME", "details": "BHK 21/MRP1 vs control BHK 21, 30 µM [3H]-resveratrol, 37°C", "description": "as §1, with “analyzer. We evaluated 60 min area under curves (AUC) by integrating exponential regression curves of [^3H]-resveratrol time course accumulation between 0 and 60 min.” for “analyzer.”"}}, "data": [{"smiles": "COc1ccc2c(c1)c(CC(=O)O)c(C)n2C(=O)c1ccc(Cl)cc1", "note": "[indomethacin, reference compound]", "values": [{"measurement": "inhibition of the release of RSV", "setting": "[1]; SW480, inhibitor 20 µM pretreatment 10 min, 5 min efflux at 37 °C", "result": 1.8, "unit": "fold"}]}, {"smiles": "CCCN(CCC)S(=O)(=O)c1ccc(C(=O)O)cc1", "note": "[probenicid]", "values": [{"measurement": "effect on resveratrol retention", "setting": "[2]", "result": "enhance resveratrol retention"}]}, {"smiles": "O=c1c(O)c(-c2ccc(O)c(O)c2)oc2cc(O)cc(O)c12", "note": "[quercetin]", "values": [{"measurement": "effect on resveratrol retention", "setting": "[2]", "result": "enhance resveratrol retention"}]}, {"smiles": "C[C@@H]1O[C@@H](O[C@H]2C[C@@H](O)[C@]3(CO)[C@H]4[C@H](O)C[C@]5(C)[C@@H](C6=CC(=O)OC6)CC[C@]5(O)[C@@H]4CC[C@]3(O)C2)[C@H](O)[C@H](O)[C@H]1O", "note": "[ouabain]", "values": [{"measurement": "effect on resveratrol retention", "setting": "[2]", "result": "enhance resveratrol retention"}]}, {"smiles": "C=C[C@H]1C[N@@]2CC[C@H]1C[C@H]2[C@H](O)c1ccnc2ccc(OC)cc12", "note": "[quinine]", "values": [{"measurement": "effect on resveratrol retention", "setting": "[2]", "result": "enhance resveratrol retention"}]}, {"smiles": "Oc1ccc(/C=C/c2cc(O)cc(O)c2)cc1", "note": "[RSV, trans 3,5,4′ trihydroxystilbene]", "values": [{"measurement": "Vi = % of Resveratrol Efflux . min^−1", "setting": "[3]; SW620, 4°C", "result": "2.8 % of Resveratrol Efflux . min^−1"}, {"measurement": "Vi = % of Resveratrol Efflux . min^−1", "setting": "[3]; SW620, 37 °C", "result": "5.7 % of Resveratrol Efflux . min^−1"}, {"measurement": "Vi = % of Resveratrol Efflux . min^−1", "setting": "[4]; HCT116, 4°C", "result": "2.6 % of Resveratrol Efflux . min^−1"}, {"measurement": "Vi = % of Resveratrol Efflux . min^−1", "setting": "[4]; HCT116, 37 °C", "result": "6.4 % of Resveratrol Efflux . min^−1"}, {"measurement": "Vi = % of Resveratrol Efflux . min^−1", "setting": "[5]; HT29, 4°C", "result": "4.3 % of Resveratrol Efflux . min^−1"}, {"measurement": "Vi = % of Resveratrol Efflux . min^−1", "setting": "[5]; HT29, 37 °C", "result": "5.9 % of Resveratrol Efflux . min^−1"}, {"measurement": "IC50", "setting": "[6]", "result": "~20", "unit": "µM"}, {"measurement": "IC50", "setting": "[7]", "result": "~70", "unit": "µM"}, {"measurement": "IC50", "setting": "[8]", "result": "~25", "unit": "µM"}, {"measurement": "IC50", "setting": "[9]", "result": "~40", "unit": "µM"}, {"measurement": "AUC (0-60 min, intracellular RSV level) diminished between control cells and MRP2 overexpressing one", "setting": "[10]", "result": 1.2, "unit": "fold"}, {"measurement": "inhibition of RSV accumulation (AUC 0-60 min of intracellular RSV level) by transporter overexpression", "setting": "[11]", "result": 1.7, "unit": "fold"}, {"measurement": "inhibition of RSV accumulation (AUC 0-60 min of intracellular RSV level) by transporter overexpression", "setting": "[12]", "result": 1.7, "unit": "fold"}, {"measurement": "effect of MRP1 overexpression on intracellular RSV level", "setting": "[13]", "result": "early slight effect"}, {"measurement": "Vi = % of Resveratrol Efflux . min^−1", "setting": "[1]; SW480, 4°C", "result": "4.7 % of Resveratrol Efflux . min^−1"}, {"measurement": "Vi = % of Resveratrol Efflux . min^−1", "setting": "[1]; SW480, 37 °C", "result": "6.3 % of Resveratrol Efflux . min^−1"}]}, {"smiles": "[O]=[V]([O-])([O-])[O-]", "note": "[orthovanadate]", "values": [{"measurement": "effect on resveratrol retention", "setting": "[2]", "result": "enhance resveratrol retention"}]}]}
